Consider 4 molecules from PMC9586938, “Picomolar fluorescent probes for compound affinity determination to carbonic anhydrase IX expressed in live cancer cells” (Scientific Reports, 2022).

pKd: −log10 of the molar value.

The target of one data set is T1, CAI (Homo sapiens, UniProt P00915).
T1 construct: made in house; host or cells: E. coli
In words: Thermal shift assay (TSA), recombinant CAI. The class given is binding. To be noted: 37 °C, pH 7.0, observed (not intrinsic).

A further data set deals with T2, CAII (Homo sapiens, UniProt P00918).
T2 construct: made in house; host or cells: E. coli
Put plainly: Thermal shift assay (TSA), recombinant CAII. It counts as binding. To be noted: 37 °C, pH 7.0, observed (not intrinsic). The protocol:
(§1) The binding affinities of all fluorescein-containing compounds were determined for all 12 catalytically active CA isozymes by the thermal shift assay (TSA). […] However, the SFA technique cannot determine the affinities lower than the enzyme concentration used in the assay. […] In addition, we used isothermal titration calorimetry (ITC), the standard assay to determine affinity and enthalpy of protein–ligand binding. […] Therefore, ITC was used only to determine the enthalpy of interaction and confirm the ordering of compound affinities.
(§2) All twelve catalytically active human CA isozymes were prepared recombinantly as previously described. Isozymes CAIX, CAXII, and CAXIV were the catalytic domains of the proteins[14],[38]. All isozymes were expressed in E. coli except CAIX that has been prepared in mammalian cells. The proteins were chromatographically purified on ion-exchange or benzene sulfonamide containing affinity columns. Protein MW was confirmed by mass spectrometry with 1 Da precision as predicted from gene sequence.
(§3) Compound affinities for the twelve catalytically active CA isozymes were determined by the thermal shift assay as previously described[30],[39]. Protein solutions containing 1,8-anilinonaphthalenesulfonate fluorescent probe were heated from 25 to 100 °C at a rate of one degree per minute while following the fluorescence of the probe. The temperature scanning curves provided the melting temperature Tm of the protein. The Tm has a distinct dependence on the concentration of a compound. Stronger binders shift the Tm to a greater extent than the weak binders. The Tm dependencies on compound concentration were fit to obtain the affinity Kd[40].

Another data set concerns the target T3, CAIII (Homo sapiens, UniProt P07451).
T3 construct: made in house; host or cells: E. coli
In words: Thermal shift assay (TSA), recombinant CAIII. It counts as binding. The settings on record: 37 °C, pH 7.0, observed (not intrinsic). On the procedure:
as §1, §2, §3

In the next data set the target is T4, CAIV (Homo sapiens, UniProt P22748).
T4 construct: made in house; host or cells: E. coli
T4 sequence (P22748 19-312): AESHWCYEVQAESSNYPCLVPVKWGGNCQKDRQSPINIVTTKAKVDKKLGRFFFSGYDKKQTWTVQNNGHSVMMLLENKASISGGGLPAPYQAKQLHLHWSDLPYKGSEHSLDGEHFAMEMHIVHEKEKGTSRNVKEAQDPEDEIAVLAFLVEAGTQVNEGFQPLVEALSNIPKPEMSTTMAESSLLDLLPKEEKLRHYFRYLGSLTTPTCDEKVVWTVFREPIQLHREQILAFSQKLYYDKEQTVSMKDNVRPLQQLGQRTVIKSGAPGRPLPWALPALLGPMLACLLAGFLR
Put plainly: Thermal shift assay (TSA), recombinant CAIV. It counts as binding. To be noted: 37 °C, pH 7.0, observed (not intrinsic).

In the next data set the target is T5, CAVA (Homo sapiens, UniProt P35218).
T5 construct: made in house; host or cells: E. coli
T5 sequence (P35218 39-305): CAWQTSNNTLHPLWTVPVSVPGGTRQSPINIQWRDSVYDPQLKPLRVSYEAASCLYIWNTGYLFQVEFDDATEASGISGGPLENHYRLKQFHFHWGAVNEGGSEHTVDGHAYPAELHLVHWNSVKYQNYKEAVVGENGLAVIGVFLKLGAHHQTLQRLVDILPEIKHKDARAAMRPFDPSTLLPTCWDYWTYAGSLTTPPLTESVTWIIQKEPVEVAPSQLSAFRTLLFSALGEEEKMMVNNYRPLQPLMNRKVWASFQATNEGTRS
Put plainly: Thermal shift assay (TSA), recombinant CAVA. To be noted: 37 °C, pH 7.0, observed (not intrinsic). It counts as binding. The protocol:
as §1, §2, §3

A further data set concerns the target T6, CAVB (Homo sapiens, UniProt Q9Y2D0).
T6 construct: made in house; host or cells: E. coli
In words: Thermal shift assay (TSA), recombinant CAVB. The class given is binding. The settings on record: 37 °C, pH 7.0, observed (not intrinsic).

The target in another data set is T7, CAVI (Homo sapiens, UniProt P23280).
T7 construct: made in house; host or cells: E. coli
T7 sequence (P23280 18-308): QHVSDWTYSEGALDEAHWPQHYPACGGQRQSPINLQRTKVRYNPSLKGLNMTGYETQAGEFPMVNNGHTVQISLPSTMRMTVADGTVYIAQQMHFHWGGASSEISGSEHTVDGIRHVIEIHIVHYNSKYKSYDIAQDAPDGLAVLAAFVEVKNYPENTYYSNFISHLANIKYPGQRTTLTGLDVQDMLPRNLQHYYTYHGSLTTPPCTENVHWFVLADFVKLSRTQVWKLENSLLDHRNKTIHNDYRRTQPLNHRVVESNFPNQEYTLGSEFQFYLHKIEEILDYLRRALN
Put plainly: Thermal shift assay (TSA), recombinant CAVI. The class given is binding. The settings on record: 37 °C, pH 7.0, observed (not intrinsic). The protocol: as §1, §2, §3

Another data set addresses T8, CAVII (Homo sapiens, UniProt P43166).
T8 construct: made in house; host or cells: E. coli
Put plainly: Thermal shift assay (TSA), recombinant CAVII. The class given is binding. The settings on record: 37 °C, pH 7.0, observed (not intrinsic).

The target in data set [1] is T9, catalytic domain of recombinant human CAIX (Homo sapiens, UniProt Q16790).
T9 construct: Isozymes CAIX, CAXII, and CAXIV were the catalytic domains of the proteins; made in house; host or cells: mammalian cells
In words: Thermal shift assay (TSA), recombinant CAIX catalytic domain. It counts as binding. The settings on record: for pKd: TSA, 37 °C, pH 7.0, observed (not intrinsic), read-out: Kd CAIX.

The next data set addresses T10, CAXII (Homo sapiens, UniProt O43570).
T10 construct: Isozymes CAIX, CAXII, and CAXIV were the catalytic domains of the proteins; made in house; host or cells: E. coli
Put plainly: Thermal shift assay (TSA), recombinant CAXII. It counts as binding. The settings on record: 37 °C, pH 7.0, observed (not intrinsic). On the procedure:
as §1, §2, §3

In another data set the target is T11, CAXIII (Homo sapiens, UniProt Q8N1Q1).
T11 construct: made in house; host or cells: E. coli
T11 sequence (Q8N1Q1 whole entry): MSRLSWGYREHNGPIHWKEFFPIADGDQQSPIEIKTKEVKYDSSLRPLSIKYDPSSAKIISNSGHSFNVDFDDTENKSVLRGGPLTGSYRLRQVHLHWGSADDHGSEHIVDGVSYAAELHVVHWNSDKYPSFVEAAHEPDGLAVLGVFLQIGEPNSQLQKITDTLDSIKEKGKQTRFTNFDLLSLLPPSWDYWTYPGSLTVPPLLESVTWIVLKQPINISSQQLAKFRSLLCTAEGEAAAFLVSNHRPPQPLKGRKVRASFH
In words: Thermal shift assay (TSA), recombinant CAXIII. It counts as binding. The settings on record: 37 °C, pH 7.0, observed (not intrinsic).

The next data set deals with T12, CAXIV (Homo sapiens, UniProt Q9ULX7).
T12 construct: Isozymes CAIX, CAXII, and CAXIV were the catalytic domains of the proteins; made in house; host or cells: E. coli
T12 sequence (Q9ULX7 20-278 limits assumed): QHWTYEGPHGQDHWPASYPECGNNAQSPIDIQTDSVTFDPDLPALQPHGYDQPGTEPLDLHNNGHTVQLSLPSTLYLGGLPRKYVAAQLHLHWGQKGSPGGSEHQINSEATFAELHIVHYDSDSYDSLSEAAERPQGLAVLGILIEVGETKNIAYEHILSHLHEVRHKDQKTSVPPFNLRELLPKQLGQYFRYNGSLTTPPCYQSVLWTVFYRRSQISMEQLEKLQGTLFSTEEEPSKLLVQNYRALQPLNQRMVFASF
In words: Thermal shift assay (TSA), recombinant CAXIV. It counts as binding. To be noted: 37 °C, pH 7.0, observed (not intrinsic).

The subject of data set [2] is HeLa CAIX-KO and normoxia-grown WT HeLa cells. In words: Fluorescein-labeled compound dosing to CAIX-KO and normoxia-grown HeLa cells (non-specific binding). It counts as cell-based, human. To be noted: micromolar concentration range, Fig. 9B, 9C. The protocol:
(§4) HeLa cell culture was grown in 12-well plates, either under hypoxia (1% O2) or under normoxia (21% O2), for 70 to 76 h. The medium was removed. Then 200 µL of serially diluted compound (twelve twofold steps) in the FB medium, usually starting at 80 nM (80, 40, 20, …, 0 nM), was added and incubated at 37 ℃ under normoxia in the CO2 incubator for 20 min (2 or 5 min in some experiments where specified). Then the compound solution was removed and the cells were washed 3 times for 1.5–2 min with 400 µL of PBS at RT. Then 180 µL of TrypLe express enzyme (ThermoFisher) was added to each well and incubated in CO2 incubator for 5 min to 10 min until the cells deattached from the surface. After addition of 20 µL of Defined Trypsin Inhibitor solution (ThermoFisher), cells were resuspended by pipetting and 150 µL of the suspension from each well were transferred to black Thermo Scientific™ Nunc MicroWell 96-Well Optical-Bottom Plates for fluorescence and absorbance measurements. The fluorescence was recorded at 485 nm excitation and 520 nm emission wavelengths in the plate reader (Synergy HTX, BioTek). The absorbance was recorded at 650 nm to measure the optical density of the cell suspension.
(§5) The compound solution was prepared by weighing 3–5 mg of a purified compound and dissolving in DMSO at 10 mM concentration. The 1 mM compound stock in DMSO was prepared by taking 10 µL of 10 mM stock and adding to 90 µL DMSO. The 10 µM compound stock was prepared by taking 10 µL of 1 mM compound stock in DMSO and adding 990 µL of the FB medium (this stock contained 1% of DMSO). Then 80 nM compound solution was prepared by taking 10 µL of 10 µM solution and adding 1.24 mL of the FB medium and placed to the first Eppendorf tube. Then 300 µL of FB medium were added to the Eppendorf tubes 2 to 12. A serial dilution was performed by taking 300 µL of solution from tube 1 to 2, then from 2 to 3 and so on while mixing vigorously at each step. No solution was transferred to the last tube thus it contained only FB medium and no compound. Then 200 µL from 12 tubes were transferred to the 12 wells of cell culture-containing 12-well plate, starting from the lowest concentration.
This equation was fit to the dosing curves of several fluorescently-labeled ligands to both the cells grown in hypoxia and in normoxia, both to the WT and CRISPR-Cas9 CAIX knockout cells. The cells bound both the GZ19-32 and GZ20-40 ligands that differed only in the length of the linker and both contained the same head-group. […] Furthermore, the ligands that had their sulfonamide amino group substituted with the methyl completely abandoned their capability of binding CAIX in this concentration region. The binding was also abolished for the CAIX-KO HeLa cells.

Data set [3] deals with CAIX expressed on live A549 cells (Homo sapiens, UniProt Q16790). Put plainly: Competition of unlabeled compound with 10 nM GZ19-32 on hypoxic A549 cells (competitive binding model). The settings on record: ratio of KdA.
Data set [4] addresses T13, CAIX expressed on HeLa cells (Homo sapiens, UniProt Q16790).
T13 construct: recombinant CAIX and endogenous CAIX expressed on the cell surface; endogenous in cells; host or cells: HeLa (WT), grown under hypoxia (1% O2)
Put plainly: Fluorescein-labeled compound dosing to hypoxia-grown WT HeLa cells (Morrison single-site model). The class given is cell-based. The settings on record: same conditions as GZ19-32, up to about 100 nM. The protocol:
as §4, §5
Application of fluorescently labeled ligand GZ19-32 to cancer cells expressing CAIX will stain the cells in dose-dependent manner. The fraction of saturation increases from 0 to 1. The fraction of bound GZ19-32 (f) is equal to the molar concentration of bound GZ19-32 per molar concentration of total available CAIX, the so-called total protein Pt . f=GZ19-32bound/Pt
Upon GZ19-32 dosing, the observed fluorescence signal F can be modeled to change from the minimal background signal ( Fmin ) to maximal saturated value ( Fmax ): F=Fmin+Fmax-Fminf […]

T10 sequence (O43570 30-289 limits assumed): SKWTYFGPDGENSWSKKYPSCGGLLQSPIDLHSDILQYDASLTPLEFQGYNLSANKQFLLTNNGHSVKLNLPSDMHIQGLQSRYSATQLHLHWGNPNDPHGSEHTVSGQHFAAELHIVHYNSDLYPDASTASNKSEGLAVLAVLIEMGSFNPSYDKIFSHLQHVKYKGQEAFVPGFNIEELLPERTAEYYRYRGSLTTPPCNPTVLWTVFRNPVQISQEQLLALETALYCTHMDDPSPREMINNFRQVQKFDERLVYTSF
T8 sequence (P43166 whole entry): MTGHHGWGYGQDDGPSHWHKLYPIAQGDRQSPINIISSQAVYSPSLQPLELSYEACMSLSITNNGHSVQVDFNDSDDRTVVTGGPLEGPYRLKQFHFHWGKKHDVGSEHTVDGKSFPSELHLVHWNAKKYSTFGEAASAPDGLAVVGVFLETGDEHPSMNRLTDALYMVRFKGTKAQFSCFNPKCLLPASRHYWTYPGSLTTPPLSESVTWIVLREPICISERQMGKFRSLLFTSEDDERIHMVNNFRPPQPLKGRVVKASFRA
T3 sequence (P07451 whole entry): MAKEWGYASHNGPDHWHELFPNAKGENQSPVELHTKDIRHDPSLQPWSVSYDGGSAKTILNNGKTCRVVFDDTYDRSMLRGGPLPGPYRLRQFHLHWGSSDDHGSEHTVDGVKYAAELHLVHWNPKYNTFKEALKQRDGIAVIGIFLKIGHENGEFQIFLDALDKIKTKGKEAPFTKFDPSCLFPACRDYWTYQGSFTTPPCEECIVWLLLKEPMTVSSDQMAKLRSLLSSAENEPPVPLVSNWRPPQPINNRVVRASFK
T6 sequence (Q9Y2D0 34-317): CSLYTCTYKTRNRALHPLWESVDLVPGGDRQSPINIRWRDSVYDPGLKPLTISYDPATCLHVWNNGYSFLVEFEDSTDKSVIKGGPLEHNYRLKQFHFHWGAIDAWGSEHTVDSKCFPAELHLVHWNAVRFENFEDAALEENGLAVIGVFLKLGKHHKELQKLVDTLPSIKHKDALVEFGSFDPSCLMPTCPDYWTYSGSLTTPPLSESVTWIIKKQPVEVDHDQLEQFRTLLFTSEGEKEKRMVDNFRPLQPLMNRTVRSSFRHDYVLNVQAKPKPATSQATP
T1 sequence (P00915 whole entry): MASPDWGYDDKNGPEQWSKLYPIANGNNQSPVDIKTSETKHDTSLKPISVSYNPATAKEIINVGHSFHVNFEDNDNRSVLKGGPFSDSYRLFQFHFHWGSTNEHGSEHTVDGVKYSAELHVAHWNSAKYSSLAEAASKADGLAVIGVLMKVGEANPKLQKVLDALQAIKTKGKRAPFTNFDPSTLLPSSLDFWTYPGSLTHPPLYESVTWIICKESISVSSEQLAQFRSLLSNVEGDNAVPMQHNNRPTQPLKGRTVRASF

As for `CS(=O)(=O)c1c(F)c(F)c(SCCC(=O)Nc2ccc3c(c2)C(=O)OC32c3ccc(O)cc3Oc3cc(O)ccc32)c(F)c1F` [GZ19-33, N-(3',6'-dihydroxy-3-oxo-3H-spiro[isobenzofuran-1,9'-xanthen]-5-yl)-3-((2,3,5,6-tetrafluoro-4-(methylsulfonyl)phenyl)thio)propanamide], the melting point fell in the range of 181 to 182 °C. Besides, at CAI, the pKd was below 4.00. Also, the pKd at CAII was below 4.00. Further, the pKd on CAIII is below 4.00. For the same molecule, the pKd at CAIV was below 4.00. Besides, at CAVA, the pKd is below 4.00. In addition, the pKd on CAVB was below 4.00. Further, the pKd at CAVI is below 4.00. Further, the pKd on CAVII was below 4.00. The pKd in [1] was below 4.00. For the same molecule, the pKd at CAXII is below 4.00. For the same molecule, the pKd on CAXIII is below 4.00. Further, at CAXIV, the pKd was below 4.00. Besides, the “non-specific binding to cells” value in data set [2] was “bound cells in the micromolar concentration range”.

In the case of `NS(=O)(=O)c1ccc(NC(=O)Nc2ccc(F)cc2)cc1` [SLC-0111, 4-(3-(4-fluorophenyl)ureido)benzenesulfonamide, reference compound], the pKd at CAIII was below 3.70; on CAVA, 5.22; on CAVI, 5.00. Also, the “weaker binding to CAIX in A549 than HeLa cells” value in data set [3] is listed as 6 times.

`NS(=O)(=O)c1c(F)c(F)c(S(=O)(=O)CCC(=O)Nc2ccc3c(c2)C(=O)OC32c3ccc(O)cc3Oc3cc(O)ccc32)c(F)c1F` [GZ19-31, N-(3',6'-dihydroxy-3-oxo-3H-spiro[isobenzofuran-1,9'-xanthen]-5-yl)-3-((2,3,5,6-tetrafluoro-4-sulfamoylphenyl)sulfonyl)propanamide] gave a melting point of 175 to 176 °C. Moreover, on CAI, the pKd is 11.30. Besides, the pKd on CAII is 8.77. Moreover, the pKd on CAIII was 5.60. In addition, at CAIV, the pKd was 6.85. Also, the pKd on CAVA was 7.54. At CAVB, the pKd was 7.70. Also, the pKd on CAVI is 6.85. In addition, the negative logarithm of the Kd (pKd) on CAVII is 8.70. Besides, the pKd in [1] is 8.77. Further, in data set [1] (recombinant CAIX), the “binding to CAIX by TSA (in words)” value is given as “medium affinity (nM range)”. Also, the pKd on CAXII is 7.40. Besides, the pKd on CAXIII is 8.77. The pKd on CAXIV is 7.60. In addition, the “binding to hypoxia-grown HeLa cells in the nM concentration region” value in data set [4] is reported as “did not bind”. Besides, in [2], the “non-specific binding to cells” value was “bound cells in the micromolar concentration range”.

For `NS(=O)(=O)c1c(F)c(F)c(S(=O)(=O)CCC(=O)NCCCC(=O)Nc2ccc3c(c2)C(=O)OC32c3ccc(O)cc3Oc3cc(O)ccc32)c(NC2CCCCCCC2)c1F` [GZ20-40, 4-(3-((2-(cyclooctylamino)-3,5,6-trifluoro-4-sulfamoylphenyl)sulfonyl)propanamido)-N-(3',6'-dihydroxy-3-oxo-3H-spiro[isobenzofuran-1,9'-xanthen]-5-yl)butanamide], the melting point is 180 to 181 °C. Besides, the pKd at CAI is 6.30. The pKd on CAII was 6.70. Besides, the pKd on CAIII is 5.17. At CAIV, the pKd was 6.30. The pKd at CAVA was 6.00. For the same molecule, the pKd at CAVB is 7.48. Also, at CAVI, the pKd was 6.60. Also, the pKd at CAVII was 8.15. The pKd in [1] was 11.00. Also, the pKd at CAXII is 8.15. In addition, the pKd on CAXIII is 9.00. Besides, the pKd on CAXIV is 8.60.
